Literature values in the PKSmart pharmacokinetics tables (Seal et al. 2025).

Assay: Lombardo, Berellini, Obach 2018, Drug Metab Dispos 46:1466, doi 10.1124/dmd.118.082966
Settings: human; for MRT / Vd / clearance / half-life: in vivo, iv; for fraction unbound: plasma

SMILES	MRT	Vd	clearance	half-life	fraction unbound
Cc1ccccc1OCC(O)CNCCOc1ccc(C(N)=O)cc1 (stereo unspecified)	4.8 h	4 L/kg	14 mL/min/kg	2.5 h	0.089
Cc1ccc(-c2ncc(Cl)cc2-c2ccc(S(C)(=O)=O)cc2)cn1	32 h	1.5 L/kg	0.79 mL/min/kg	26 h	0.081
COc1cc2c(cc1OC)CN(c1cc(N)c3cc(OC)c(OC)cc3n1)CC2	7.6 h	6.3 L/kg	14 mL/min/kg	5.9 h	
N=C(N)Nc1ccc(C(=O)Oc2ccc3cc(C(=N)N)ccc3c2)cc1	1.15 h	5.71 L/kg	82 mL/min/kg	1.84 h	
CC(=O)C1CC[C@H]2[C@@H]3CC[C@@H]4C[C@H](O)CC[C@]4(C)[C@H]3CC[C@]12C (stereo partly specified)	1.5 h	2 L/kg	22 mL/min/kg	4.7 h	0.01
CCN(CC)C(=O)N[C@H]1C=C2c3cccc4[nH]cc(c34)C[C@H]2N(C)C1	2.17 h	1.73 L/kg	13.3 mL/min/kg	1.8 h	
Cc1nc(NNC(=O)C(CC2CCCC2)CN(O)C=O)c(F)c(N2CCN3CCOCC3C2)n1 (stereo unspecified)	2.2 h	0.75 L/kg	5.6 mL/min/kg	4.2 h	
CCNC(=O)C1C[C@@H](n2ccc3c(N[C@H](CC)Cc4sccc4Cl)ncnc32)[C@H](O)[C@@H]1O (stereo partly specified)	1.18 h	0.84 L/kg	12 mL/min/kg	1.33 h	0.03
CCOC(Cc1ccc(OCCc2ccc(OS(C)(=O)=O)cc2)cc1)C(=O)O (stereo unspecified)	56 h	0.13 L/kg	0.039 mL/min/kg	45 h	
Cc1c(CN(C)C(=O)C=Cc2cnc3c(c2)CCC(=O)N3)oc2ccccc12	8.4 h	0.43 L/kg	0.9 mL/min/kg	6.4 h	
C[C@H]1CN(c2c(F)cc3c(=O)c(C(=O)O)cn(C4CC4)c3c2OC(F)F)CCN1	7.1 h	1.1 L/kg	2.7 mL/min/kg	5.9 h	
O=C(/C=C/c1ccc(O)c2c1C(C(=O)OC(Cc1ccc(O)c(O)c1)C(=O)O)[C@@H](c1ccc(O)c(O)c1)O2)OC(Cc1ccc(O)c(O)c1)C(=O)O (stereo partly specified)	0.42 h	0.14 L/kg	7.17 mL/min/kg	0.29 h	0.08
C#C[C@]1(O)CC[C@H]2[C@@H]3CC=C4CC(=O)CCC4[C@H]3C(=C)C[C@@]21CC (stereo partly specified)	23.6 h	2.87 L/kg	2 mL/min/kg	25 h	0.02
C[C@@H]1C[C@H]2[C@@H]3C[C@H](F)C4=CC(=O)C=C[C@]4(C)[C@H]3[C@@H](O)C[C@]2(C)C1C(=O)CO (stereo partly specified)	1.6 h	0.68 L/kg	7 mL/min/kg	1.3 h	0.04
NCCCCC(NC1CCc2ccccc2N(CC(=O)O)C1=O)C(=O)O (stereo unspecified)	29.3 h	1.98 L/kg	1.23 mL/min/kg		
NC(Cc1c[nH]c2ccc(O)cc12)C(=O)O (stereo unspecified)	7.75 h	0.8 L/kg	1.72 mL/min/kg	6.14 h	
COc1ccccc1Oc1c(NS(=O)(=O)c2ccc(C(C)(C)C)cc2)nc(-c2ncccn2)nc1OCCO	2.3 h	0.29 L/kg	2.1 mL/min/kg	4.1 h	0.037

SMILES	MRT	Vd	clearance	half-life	fraction unbound
C[C@H](CCc1ccc(O)cc1)NCCc1ccc(O)c(O)c1			115 mL/min/kg		
Cn1c(=N)c(NC(=O)NCCN)cn1CC1=C(C(=O)O)N2C(=O)C(=NC(=O)C(NOC(C)(C)C(=O)O)c3nsc(N)n3)[C@H]2SC1 (stereo partly specified)	2.39 h	0.17 L/kg	1.16 mL/min/kg	2.58 h	0.81
C[C@H](CN1CCOCC1)C(C(=O)N1CCCC1)(c1ccccc1)c1ccccc1	3.88 h	0.47 L/kg	2.19 mL/min/kg	3.18 h	
CSCO[C@H]1C[C@H]2OC[C@@]2(OC(C)=O)[C@H]2[C@H](OC(=O)c3ccccc3)[C@]3(O)C[C@H](OC(=O)C(O)C(NC(=O)c4ccccc4)c4ccccc4)C(C)=C(C(OC(C)=O)C(=O)[C@]12C)C3(C)C (stereo partly specified)	29 h	11 L/kg	6.4 mL/min/kg	32 h	
COc1cc(NC(C)CCCN)c2ncccc2c1 (stereo unspecified)	11 h	4 L/kg	5.8 mL/min/kg	7.1 h	
O=C1CCC[C@@H]2[C@H]3CCC[N@+]4(O)CCC[C@@H](CN12)[C@@H]34	1.33 h	0.61 L/kg	7.66 mL/min/kg	1.69 h	
CC(=O)C[C@H](c1ccc([N+](=O)[O-])cc1)c1c(O)c2ccccc2oc1=O	3.12 h	0.24 L/kg	1.28 mL/min/kg	7.22 h	0.02
CN1C(=O)CC[C@H]1c1cccnc1	21 h	1.1 L/kg	0.89 mL/min/kg	17 h	
CC1(C)SC2C(NC(=O)C(NC(=O)c3cnc4cccnc4c3O)c3ccccc3)C(=O)N2C1C(=O)O (stereo unspecified)	1.4 h	0.16 L/kg	1.9 mL/min/kg	1.2 h	0.1
O=c1ccc2ncc(=O)n3c2n1C[C@H]3CN1CCC(NCc2cc3c(cn2)OCCC3)CC1	4.86 h	2.7 L/kg	9.23 mL/min/kg	12.6 h	
CC(c1ccccn1)c1c(CCN(C)C)sc2ccccc12 (stereo unspecified)	6.8 h	1.83 L/kg	5.31 mL/min/kg	9.1 h	
CN(C)Cc1c(C(=O)NCCOc2ccc(C(O)=NO)cc2)oc2ccccc12	2.65 h	2.6 L/kg	16.3 mL/min/kg	5.9 h	
CN1C(=O)C(O)C[C@H]1c1cccnc1 (stereo partly specified)	7.9 h	0.85 L/kg	1.8 mL/min/kg	5.9 h	
Cc1ccccc1-c1cc(N2CCN(C)CC2)ncc1N(C)C(=O)C(C)(C)c1cc(C(F)(F)F)cc(C(F)(F)F)c1	32.6 h	5.54 L/kg	2.83 mL/min/kg	34.3 h	0.003
Cn1cc(C(=O)C2CCc3[nH]cnc3C2)c2ccccc21 (stereo unspecified)	6.28 h	2.65 L/kg	7.03 mL/min/kg	4.94 h	
C[C@]12CC[C@H]3[C@@H](CC=C4CC(=O)CC[C@@]43C)[C@@H]1CC[C@@H]2O	0.25 h	0.35 L/kg	24.5 mL/min/kg	0.17 h	0.057
COc1ccc(C[C@@H]2c3cc(OC)c(OC)cc3CC[N@+]2(C)CCC(=O)OCCCCCOC(=O)CC[N@@+]2(C)CCc3cc(OC)c(OC)cc3[C@H]2Cc2ccc(OC)c(OC)c2)cc1OC	0.43 h	0.14 L/kg	5.4 mL/min/kg	0.42 h	0.62
